According to patent US6191115A, “C-terminus modified heptapeptide LHRH analogs” (Abbott Laboratories, priority 1999, dated 2001):
Starred links: 1 amine or outer side, 2 acyl side, 3 side chain; linkers in the order of their positions; H or OH if unused. Non-standard residues stand in square brackets, D forms with d. Residues, ends and D or L forms follow the SMILES beside them. *: point of attachment. NH(2-pyrrolidin-1-ylethyl) = C1CCN(CCN*)C1; NHCH2CH2(piperidin-1-yl) = C1CCN(CCN*)CC1; dPhe(4-Cl) = N[C@H](Cc1ccc(Cl)cc1)C(=O)O; NH(2-morpholinoethyl) = C(CN1CCOCC1)N*; NH(CH2)10NH = C(CCCCCN[*:2])CCCCN[*:1]; d2Nal = N[C@H](Cc1ccc2ccccc2c1)C(=O)O; NMeY = CN[C@@H](Cc1ccc(O)cc1)C(=O)O; d3Pal = N[C@H](Cc1cccnc1)C(=O)O; NH(3-picolyl) = c1cncc(CN*)c1; Nicotinoyl = O=C(c1cccnc1)*; Agmatine = N=C(N)NCCCCN*; NH(CH2)7NH2 = NCCCCCCCN*; NHCH2CH2NHMe = CNCCN*; X10 = N=C(N)NCCCCCCN*; X5 = C1CN2CCC1C(N*)C2; NH(CH2)4OH = OCCCCN*; X12 = N=C(N)NCCCCCN*; X3 = O=C1CCCN1CCCN*; X8 = Cn1cccc1CCN*; NEt2 = CCN(CC)*; X4 = CC(C)NCCN*

Molecular target: T1, LH release from rat pituitary cells (Rattus norvegicus, UniProt P30969)
T1 sequence (P30969 1-327): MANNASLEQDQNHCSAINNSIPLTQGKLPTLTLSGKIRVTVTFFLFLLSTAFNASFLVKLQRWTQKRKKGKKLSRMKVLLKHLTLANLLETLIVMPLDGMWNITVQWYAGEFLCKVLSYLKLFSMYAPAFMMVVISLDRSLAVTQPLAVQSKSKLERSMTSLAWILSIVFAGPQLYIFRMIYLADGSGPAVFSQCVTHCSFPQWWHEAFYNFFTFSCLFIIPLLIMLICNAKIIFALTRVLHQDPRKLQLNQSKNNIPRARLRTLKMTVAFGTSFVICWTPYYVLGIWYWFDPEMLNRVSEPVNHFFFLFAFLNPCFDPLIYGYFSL
Experiment: in vitro inhibition of LH release from rat pituitary cells (pA2)
Type: cell-based
Conditions: pA2 = negative logarithm of antagonist concentration required to shift the response curve of the agonist leuprolide to two-fold higher concentration
Procedure: Representative compounds of the present invention were evaluated in vitro for inhibition of LH release from rat pituitary cells (pA2). Methods for the assay procedures arc described by F. Haviv, et al. J. Med. Chem., 32:2340-2344 (1989). Values of pA2 are the negative logarithms of the concentration of the particular antagonist test compound required to shift the response curve produced by the agonist leuprolide to two-fold higher concentration. Typically values of 7.0 or greater are indicative of good LHRH antagonist potency, with values of 8.0 or greater being preferred. Leuprolide LHRH agonist, disclosed and claimed in U.S. Pat. No. 4,005,063, has the structure 5-oxo-Pro^1 -His^2 -Trp^3 -Ser^4 -Tyr^5 -D-Leu^6 -Leu^7 -Arg^8 -Pro^9 -NHEt.

Structure (SMILES) | LHRH antagonist potency (pA2)
CC(=O)N[C@H](Cc1ccc2ccccc2c1)C(=O)N[C@H](Cc1ccc(Cl)cc1)C(=O)N[C@H](Cc1cccnc1)C(=O)N[C@@H](CO)C(=O)N(C)[C@@H](Cc1ccc(O)cc1)C(=O)N[C@H](CCCCNC(=O)c1cccnc1)C(=O)N[C@@H](CC(C)C)C(=O)NCCN1CCCC1 [Example 3, NAcD2Nal-D4ClPhe-D3Pal-Ser-NMeTyr-DLys(Nic)-Leu-NH--(CH2)2 -(1-pyrrolidine)] (Ac-[d2Nal][dPhe(4-Cl)][d3Pal]S[NMeY][dK](Nicotinoyl)L-{NH(2-pyrrolidin-1-ylethyl)}) | 11.27
CC(=O)N[C@H](Cc1ccc2ccccc2c1)C(=O)N[C@H](Cc1ccc(Cl)cc1)C(=O)N[C@H](Cc1cccnc1)C(=O)N[C@@H](CO)C(=O)N(C)[C@@H](Cc1ccc(O)cc1)C(=O)N[C@H](CCCCNC(=O)c1cccnc1)C(=O)N[C@@H](CC(C)C)C(=O)NCCN1CCCCC1 [Example 26, NAcD2Nal-D4ClPhe-D3Pal-Ser-NMeTyr-DLys(Nic)-Leu-NH--CH2 --CH2 -(1-piperidine)] (Ac-[d2Nal][dPhe(4-Cl)][d3Pal]S[NMeY][dK](Nicotinoyl)L-{NHCH2CH2(piperidin-1-yl)}) | 9.30
CC(=O)N[C@H](Cc1ccc2ccccc2c1)C(=O)N[C@H](Cc1ccc(Cl)cc1)C(=O)N[C@H](Cc1cccnc1)C(=O)N[C@@H](CO)C(=O)N(C)[C@@H](Cc1ccc(O)cc1)C(=O)N[C@H](CCCCNC(=O)c1cccnc1)C(=O)N[C@@H](CC(C)C)C(=O)NCCCCO [Example 34, NAcD2Nal-D4ClPhe-D3Pal-Ser-NMeTyr-DLys(Nic)-Leu-NH--CH2 CH2 CH2 CH2 OH] (Ac-[d2Nal][dPhe(4-Cl)][d3Pal]S[NMeY][dK](Nicotinoyl)L-{NH(CH2)4OH}) | 8.71
CC(=O)N[C@H](Cc1ccc2ccccc2c1)C(=O)N[C@H](Cc1ccc(Cl)cc1)C(=O)N[C@H](Cc1cccnc1)C(=O)N[C@@H](CO)C(=O)N(C)[C@@H](Cc1ccc(O)cc1)C(=O)N[C@H](CCCCNC(=O)c1cccnc1)C(=O)N[C@@H](CC(C)C)C(=O)NCCNC(C)C [Example 9, NAcD2Nal-D4ClPhe-D3Pal-Ser-NMeTyr-DLys(Nic)-Leu-NH--(CH2)2 NH-isopropyl] (Ac-[d2Nal][dPhe(4-Cl)][d3Pal]S[NMeY][dK](Nicotinoyl)L-X4) | 10.21
CC(=O)N[C@H](Cc1ccc2ccccc2c1)C(=O)N[C@H](Cc1ccc(Cl)cc1)C(=O)N[C@H](Cc1cccnc1)C(=O)N[C@@H](CO)C(=O)N(C)[C@@H](Cc1ccc(O)cc1)C(=O)N[C@H](CCCCNC(=O)c1cccnc1)C(=O)N[C@@H](CC(C)C)C(=O)NCCN1CCOCC1 [Example 27, NAcD2Nal-D4ClPhe-D3Pal-Ser-NMeTyr-DLys(Nic)-Leu-NH--CH2 --CH2 -(1-norpholine)] (Ac-[d2Nal][dPhe(4-Cl)][d3Pal]S[NMeY][dK](Nicotinoyl)L-{NH(2-morpholinoethyl)}) | 8.30
CC(=O)N[C@H](Cc1ccc2ccccc2c1)C(=O)N[C@H](Cc1ccc(Cl)cc1)C(=O)N[C@H](Cc1cccnc1)C(=O)N[C@@H](CO)C(=O)N(C)[C@@H](Cc1ccc(O)cc1)C(=O)N[C@H](CCCCNC(=O)c1cccnc1)C(=O)N[C@@H](CC(C)C)C(=O)NCCCCCCCCCCN [Example 17, NAcD2Nal-D4ClPhe-D3Pal-Ser-NMeTyr-DLys(Nic)-Leu-NH--(CH2)10 NH2] (Ac-[d2Nal][dPhe(4-Cl)][d3Pal]S[NMeY][dK](Nicotinoyl)L-{NH(CH2)10NH}) | 7.63
CC(=O)N[C@H](Cc1ccc2ccccc2c1)C(=O)N[C@H](Cc1ccc(Cl)cc1)C(=O)N[C@H](Cc1cccnc1)C(=O)N[C@@H](CO)C(=O)N(C)[C@@H](Cc1ccc(O)cc1)C(=O)N[C@H](CCCCNC(=O)c1cccnc1)C(=O)N[C@@H](CC(C)C)C(=O)NCc1cccnc1 [Example 24, NAcD2Nal-D4ClPhe-D3Pal-Ser-NMeTyr-DLys(Nic)-Leu-NH--CH2 -(3-pyridine)] (Ac-[d2Nal][dPhe(4-Cl)][d3Pal]S[NMeY][dK](Nicotinoyl)L-{NH(3-picolyl)}) | 8.30
CC(=O)N[C@H](Cc1ccc2ccccc2c1)C(=O)N[C@H](Cc1ccc(Cl)cc1)C(=O)N[C@H](Cc1cccnc1)C(=O)N[C@@H](CO)C(=O)N(C)[C@@H](Cc1ccc(O)cc1)C(=O)N[C@H](CCCCNC(=O)c1cccnc1)C(=O)N[C@@H](CC(C)C)C(=O)NCCCCCNC(=N)N [Example 14, NAcD2Nal-D4ClPhe-D3Pal-Ser-NMeTyr-DLys(Nic)-Leu-NH--(CH2)5 NH(C=NH)NH2] (Ac-[d2Nal][dPhe(4-Cl)][d3Pal]S[NMeY][dK](Nicotinoyl)L-X12) | 9.81
CC(=O)N[C@H](Cc1ccc2ccccc2c1)C(=O)N[C@H](Cc1ccc(Cl)cc1)C(=O)N[C@H](Cc1cccnc1)C(=O)N[C@@H](CO)C(=O)N(C)[C@@H](Cc1ccc(O)cc1)C(=O)N[C@H](CCCCNC(=O)c1cccnc1)C(=O)N[C@@H](CC(C)C)C(=O)NCCc1cccn1C [Example 29, NAcD2Nal-D4ClPhe-D3Pal-Ser-NMeTyr-DLys(Nic)-Leu-NH--CH2 --CH2 -[2-(1-methyl)pyrrole]] (Ac-[d2Nal][dPhe(4-Cl)][d3Pal]S[NMeY][dK](Nicotinoyl)L-X8) | 8.30
CC(=O)N[C@H](Cc1ccc2ccccc2c1)C(=O)N[C@H](Cc1ccc(Cl)cc1)C(=O)N[C@H](Cc1cccnc1)C(=O)N[C@@H](CO)C(=O)N(C)[C@@H](Cc1ccc(O)cc1)C(=O)N[C@H](CCCCNC(=O)c1cccnc1)C(=O)N[C@@H](CC(C)C)C(=O)NCCCCCCNC(=N)N [Example 11, NAcD2Nal-D4ClPhe-D3Pal-Ser-NMeTyr-DLys(Nic)-Leu-NH--(CH2)6 NH(C=NH)NH2] (Ac-[d2Nal][dPhe(4-Cl)][d3Pal]S[NMeY][dK](Nicotinoyl)L-X10) | 9.10
CC(=O)N[C@H](Cc1ccc2ccccc2c1)C(=O)N[C@H](Cc1ccc(Cl)cc1)C(=O)N[C@H](Cc1cccnc1)C(=O)N[C@@H](CO)C(=O)N(C)[C@@H](Cc1ccc(O)cc1)C(=O)N[C@H](CCCCNC(=O)c1cccnc1)C(=O)N[C@@H](CC(C)C)C(=O)NCCCCNC(=N)N [Example 22, NAcD2Nal-D4ClPhe-D3Pal-Ser-NMeTyr-DLys(Nic)-Leu-NH--(CH2)4 NH(C=NH)NH2] (Ac-[d2Nal][dPhe(4-Cl)][d3Pal]S[NMeY][dK](Nicotinoyl)L-Agmatine) | 10.26
CCN(CC)C(=O)[C@H](CC(C)C)NC(=O)[C@@H](CCCCNC(=O)c1cccnc1)NC(=O)[C@H](Cc1ccc(O)cc1)N(C)C(=O)[C@H](CO)NC(=O)[C@@H](Cc1cccnc1)NC(=O)[C@@H](Cc1ccc(Cl)cc1)NC(=O)[C@@H](Cc1ccc2ccccc2c1)NC(C)=O [Example 4, NAcD2Nal-D4ClPhe-D3Pal-Ser-NMeTyr-DLys(Nic)-Leu-N(CH2 CH3)2] (Ac-[d2Nal][dPhe(4-Cl)][d3Pal]S[NMeY][dK](Nicotinoyl)L-NEt2) | 7.96
CC(=O)N[C@H](Cc1ccc2ccccc2c1)C(=O)N[C@H](Cc1ccc(Cl)cc1)C(=O)N[C@H](Cc1cccnc1)C(=O)N[C@@H](CO)C(=O)N(C)[C@@H](Cc1ccc(O)cc1)C(=O)N[C@H](CCCCNC(=O)c1cccnc1)C(=O)N[C@@H](CC(C)C)C(=O)NCCCCCCCN [Example 10, NAcD2Nal-D4ClPhe-D3Pal-Ser-NMeTyr-DLys(Nic)-Leu-NH--(CH2)7 NH2] (Ac-[d2Nal][dPhe(4-Cl)][d3Pal]S[NMeY][dK](Nicotinoyl)L-{NH(CH2)7NH2}) | 8.76
CC(=O)N[C@H](Cc1ccc2ccccc2c1)C(=O)N[C@H](Cc1ccc(Cl)cc1)C(=O)N[C@H](Cc1cccnc1)C(=O)N[C@@H](CO)C(=O)N(C)[C@@H](Cc1ccc(O)cc1)C(=O)N[C@H](CCCCNC(=O)c1cccnc1)C(=O)N[C@@H](CC(C)C)C(=O)NCCCN1CCCC1=O [Example 33, NAcD2Nal-D4ClPhe-D3Pal-Ser-NMeTyr-DLys(Nic)-Leu-NH--CH2 CH2 CH2 -(1-pyrrolidin-2-one)] (Ac-[d2Nal][dPhe(4-Cl)][d3Pal]S[NMeY][dK](Nicotinoyl)L-X3) | 8.30
CC(=O)N[C@H](Cc1ccc2ccccc2c1)C(=O)N[C@H](Cc1ccc(Cl)cc1)C(=O)N[C@H](Cc1cccnc1)C(=O)N[C@@H](CO)C(=O)N(C)[C@@H](Cc1ccc(O)cc1)C(=O)N[C@H](CCCCNC(=O)c1cccnc1)C(=O)N[C@@H](CC(C)C)C(=O)NC1CN2CCC1CC2 (stereo partly drawn) [Example 25, NAcD2Nal-D4ClPhe-D3Pal-Ser-NMeTyr-Dlys(Nic)-Leu-NH--(3-guinuclidine)] (Ac-[d2Nal][dPhe(4-Cl)][d3Pal]S[NMeY][dK](Nicotinoyl)L-X5) | 10.02
CNCCNC(=O)[C@H](CC(C)C)NC(=O)[C@@H](CCCCNC(=O)c1cccnc1)NC(=O)[C@H](Cc1ccc(O)cc1)N(C)C(=O)[C@H](CO)NC(=O)[C@@H](Cc1cccnc1)NC(=O)[C@@H](Cc1ccc(Cl)cc1)NC(=O)[C@@H](Cc1ccc2ccccc2c1)NC(C)=O [Example 19, NAcD2Nal-D4ClPhe-D3Pal-Ser-NMeTyr-DLys(Nic)-Leu-NH--(CH2)2 NHCH3] (Ac-[d2Nal][dPhe(4-Cl)][d3Pal]S[NMeY][dK](Nicotinoyl)L-NHCH2CH2NHMe) | 9.70
